Measurements reported in US7618816B2, “Metal-binding therapeutic peptides” (Ontherix, Inc., priority 2005, dated 2009).

Legend:
[1] = test system: CCRF-SB; experiment: Uptake of SA-HRP::MBD peptide complexes; type: cell-based
Protocol: (§1) HEK293 kidney cell line and 54 tumor cell lines obtained from the National Cancer Institute and passaged in RPMI1640 cell culture medium supplemented with 10% fetal bovine serum and 10 uM FeCl2. Uptake of streptavidin-horseradish peroxidase (SA-HRP) conjugate and of various SA-HRP::MBD peptide complexes was determined as described (Singh et al. J Biol Chem. 279 (1):477-87 [2004]) using biotinylated MBD9 ([…]) (SEQ ID NO: 10) and MBD21 ([…]) (SEQ ID NO: 4) peptides and SA-HRP. Nuclear and cytoplasmic localization of these proteins was also determined in each case. […] In order to establish the underlying molecular mechanism for this variability, we cross-linked MBD21 peptide to the following cell surface markers at 4 degrees Celsius as previously described (Singh et al. J Biol Chem. 279 (1):477-87 [2004]): transferrin receptor 1, caveolin 1, PCNA, integrins alpha v, 2, 5 and 6, integrins beta 1, 3 and 5. […] Based on the strength of these correlations, it was possible to derive crude predictive formulae for MBD-mediated uptake based on the rate of cross-linking to surface markers. Such predictive formulas could form the basis for a diagnostic procedure to select appropriate targets for MBD-based therapies.

[2] = test system: 435; experiment: Uptake of SA-HRP::MBD peptide complexes; type: cell-based
Protocol: as §1

[3] = test system: SR; experiment: Uptake of SA-HRP::MBD peptide complexes; type: cell-based
Protocol: as §1

[4] = test system: HEK 293; experiment: Uptake of SA-HRP::MBD peptide complexes; type: cell-based
Protocol: as §1

[5] = test system: COLON 26; experiment: Uptake of SA-HRP::MBD peptide complexes; type: cell-based
Protocol: as §1

[6] = test system: K562; experiment: Uptake of SA-HRP::MBD peptide complexes; type: cell-based
Protocol: as §1

[7] = test system: PAN 02; experiment: Uptake of SA-HRP::MBD peptide complexes; type: cell-based
Protocol: as §1

[8] = test system: 54 tumor cell lines; experiment: Uptake of SA-HRP::MBD peptide complexes, median of the survey; type: cell-based; conditions: median over tumor cell lines
Protocol: as §1

[9] = test system: NCI-H226; experiment: Uptake of SA-HRP::MBD peptide complexes; type: cell-based, human
Protocol: as §1

[10] = test system: NCI-H23; experiment: Uptake of SA-HRP::MBD peptide complexes; type: cell-based, human
Protocol: as §1

[11] = test system: TK-10; experiment: Uptake of SA-HRP::MBD peptide complexes; type: cell-based, human
Protocol: as §1

[12] = test system: HOP 62; experiment: Uptake of SA-HRP::MBD peptide complexes; type: cell-based, human
Protocol: as §1

[13] = test system: OVCAR-8; experiment: Uptake of SA-HRP::MBD peptide complexes; type: cell-based, human
Protocol: as §1

[14] = test system: NCI-H460; experiment: Uptake of SA-HRP::MBD peptide complexes; type: cell-based, human
Protocol: as §1

[15] = test system: A549; experiment: Uptake of SA-HRP::MBD peptide complexes; type: cell-based, human
Protocol: as §1

[16] = test system: SN12C; experiment: Uptake of SA-HRP::MBD peptide complexes; type: cell-based, human
Protocol: as §1

[17] = test system: SHP-77; experiment: Uptake of SA-HRP::MBD peptide complexes; type: cell-based, human
Protocol: as §1

[18] = test system: IGR-OV1; experiment: Uptake of SA-HRP::MBD peptide complexes; type: cell-based, human
Protocol: as §1

[19] = test system: PC-3; experiment: Uptake of SA-HRP::MBD peptide complexes; type: cell-based, human
Protocol: as §1

[20] = test system: MOLT4; experiment: Uptake of SA-HRP::MBD peptide complexes; type: cell-based, human
Protocol: as §1

[21] = test system: 231; experiment: Uptake of SA-HRP::MBD peptide complexes; type: cell-based, human
Protocol: as §1

[22] = test system: HS 913T; experiment: Uptake of SA-HRP::MBD peptide complexes; type: cell-based, human
Protocol: as §1

[23] = test system: HOP 18; experiment: Uptake of SA-HRP::MBD peptide complexes; type: cell-based, human
Protocol: as §1

[24] = test system: CHA-59; experiment: Uptake of SA-HRP::MBD peptide complexes; type: cell-based, human
Protocol: as §1

[25] = test system: NHI-H322M; experiment: Uptake of SA-HRP::MBD peptide complexes; type: cell-based, human
Protocol: as §1

[26] = test system: MX-1; experiment: Uptake of SA-HRP::MBD peptide complexes; type: cell-based, human
Protocol: as §1

[27] = test system: A2780; experiment: Uptake of SA-HRP::MBD peptide complexes; type: cell-based, human
Protocol: as §1

[28] = test system: HCC 2998; experiment: Uptake of SA-HRP::MBD peptide complexes; type: cell-based, human
Protocol: as §1

[29] = test system: CCRF-CEM; experiment: Uptake of SA-HRP::MBD peptide complexes; type: cell-based, human
Protocol: as §1

[30] = test system: 786-O; experiment: Uptake of SA-HRP::MBD peptide complexes; type: cell-based, human
Protocol: as §1

[31] = test system: HCT-116; experiment: Uptake of SA-HRP::MBD peptide complexes; type: cell-based, human
Protocol: as §1

[32] = test system: OVCAR-4; experiment: Uptake of SA-HRP::MBD peptide complexes; type: cell-based, human
Protocol: as §1

[33] = test system: KM12; experiment: Uptake of SA-HRP::MBD peptide complexes; type: cell-based, human
Protocol: as §1

KKGFYKKKKQCRPSKGRKRGFCWNGRK [MBD9]
SA-HRP uptake, Cyt. ([1]; cytoplasmic): 2.6 ng
SA-HRP uptake, Nuc. ([1]; nuclear): 0.6 ng
SA-HRP uptake, Cyt. ([2]; 435, cytoplasmic): 8.6 ng
SA-HRP uptake, Nuc. ([2]; 435, nuclear): 2.7 ng
SA-HRP uptake, Cyt. ([3]; cytoplasmic): 24.4 ng
SA-HRP uptake, Nuc. ([3]; nuclear): 0.0 ng
SA-HRP uptake, Cyt. ([4]; HEK 293, cytoplasmic): 20.2 ng
SA-HRP uptake, Nuc. ([4]; HEK 293, nuclear): 20.1 ng
SA-HRP uptake, Cyt. ([5]; COLON 26, cytoplasmic): 11.3 ng
SA-HRP uptake, Nuc. ([5]; COLON 26, nuclear): 2.3 ng
SA-HRP uptake, Cyt. ([6]; K562, cytoplasmic): 2.6 ng
SA-HRP uptake, Nuc. ([6]; K562, nuclear): 1.3 ng
SA-HRP uptake, Cyt. ([7]; PAN 02, cytoplasmic): 25.8 ng
SA-HRP uptake, Nuc. ([7]; PAN 02, nuclear): 7.0 ng
SA-HRP uptake, Cyt. (ng), Median ([8]; cytoplasmic): 7.4 ng
SA-HRP uptake, Nuc. (ng), Median ([8]; nuclear): 1.8 ng
SA-HRP uptake, Cyt. ([9]; NCI-H226, cytoplasmic): 2.6 ng
SA-HRP uptake, Nuc. ([9]; NCI-H226, nuclear): 1.8 ng
SA-HRP uptake, Cyt. ([10]; NCI-H23, cytoplasmic): 10.8 ng
SA-HRP uptake, Nuc. ([10]; NCI-H23, nuclear): 6.6 ng
SA-HRP uptake, Cyt. ([11]; TK-10, cytoplasmic): 4.0 ng
SA-HRP uptake, Nuc. ([11]; TK-10, nuclear): 1.3 ng
SA-HRP uptake, Cyt. ([12]; HOP 62, cytoplasmic): 12.0 ng
SA-HRP uptake, Nuc. ([12]; HOP 62, nuclear): 0.9 ng
SA-HRP uptake, Cyt. ([13]; OVCAR-8, cytoplasmic): 3.9 ng
SA-HRP uptake, Nuc. ([13]; OVCAR-8, nuclear): 5.0 ng
SA-HRP uptake, Cyt. ([14]; NCI-H460, cytoplasmic): 30.3 ng
SA-HRP uptake, Nuc. ([14]; NCI-H460, nuclear): 5.6 ng
SA-HRP uptake, Cyt. ([15]; A549, cytoplasmic): 9.6 ng
SA-HRP uptake, Nuc. ([15]; A549, nuclear): 3.5 ng
SA-HRP uptake, Cyt. ([16]; cytoplasmic): 10.6 ng
SA-HRP uptake, Nuc. ([16]; nuclear): 3.5 ng
SA-HRP uptake, Cyt. ([17]; SHP-77, cytoplasmic): 12.8 ng
SA-HRP uptake, Nuc. ([17]; SHP-77, nuclear): 5.9 ng
SA-HRP uptake, Cyt. ([18]; IGR-OV1, cytoplasmic): 7.0 ng
SA-HRP uptake, Nuc. ([18]; IGR-OV1, nuclear): 2.6 ng
SA-HRP uptake, Cyt. ([19]; PC-3, cytoplasmic): 23.2 ng
SA-HRP uptake, Nuc. ([19]; PC-3, nuclear): 8.5 ng
SA-HRP uptake, Cyt. ([20]; MOLT4, cytoplasmic): 12.7 ng
SA-HRP uptake, Nuc. ([20]; MOLT4, nuclear): 0.0 ng
SA-HRP uptake, Cyt. ([21]; 231, cytoplasmic): 9.6 ng
SA-HRP uptake, Nuc. ([21]; 231, nuclear): 2.6 ng
SA-HRP uptake, Cyt. ([22]; cytoplasmic): 3.4 ng
SA-HRP uptake, Nuc. ([22]; nuclear): 1.1 ng
SA-HRP uptake, Cyt. ([23]; HOP 18, cytoplasmic): 16.6 ng
SA-HRP uptake, Nuc. ([23]; HOP 18, nuclear): 8.1 ng
SA-HRP uptake, Cyt. ([24]; CHA-59, cytoplasmic): 24.7 ng
SA-HRP uptake, Nuc. ([24]; CHA-59, nuclear): 9.7 ng
SA-HRP uptake, Cyt. ([25]; cytoplasmic): 5.2 ng
SA-HRP uptake, Nuc. ([25]; nuclear): 5.0 ng
SA-HRP uptake, Cyt. ([26]; MX-1, cytoplasmic): 10.8 ng
SA-HRP uptake, Nuc. ([26]; MX-1, nuclear): 3.1 ng
SA-HRP uptake, Cyt. ([27]; A2780, cytoplasmic): 20.7 ng
SA-HRP uptake, Nuc. ([27]; A2780, nuclear): 2.8 ng
SA-HRP uptake, Cyt. ([28]; HCC 2998, cytoplasmic): 4.6 ng
SA-HRP uptake, Nuc. ([28]; HCC 2998, nuclear): 3.7 ng
SA-HRP uptake, Cyt. ([29]; cytoplasmic): 46.2 ng
SA-HRP uptake, Nuc. ([29]; nuclear): 1.8 ng
SA-HRP uptake, Cyt. ([30]; cytoplasmic): 2.9 ng
SA-HRP uptake, Nuc. ([30]; nuclear): 3.9 ng
SA-HRP uptake, Cyt. ([31]; HCT-116, cytoplasmic): 14.1 ng
SA-HRP uptake, Nuc. ([31]; HCT-116, nuclear): 4.4 ng
SA-HRP uptake, Cyt. ([32]; OVCAR-4, cytoplasmic): 9.9 ng
SA-HRP uptake, Nuc. ([32]; OVCAR-4, nuclear): 2.7 ng
SA-HRP uptake, Cyt. ([33]; KM12, cytoplasmic): 3.6 ng
SA-HRP uptake, Nuc. ([33]; KM12, nuclear): 1.0 ng
